Data published in publication PMC12508063, “Chloroindazole based estrogen receptor β ligands with favorable pharmacokinetics promote functional remyelination and visual recovery” (Scientific Reports, 2025).
Values joined by “and” are separate entries in the source; they are usually repeats but may differ in a detail not shown here. Identical values can stand only once. Like-named read-outs stand apart in the source and are kept apart here.

Tests used:
EAE mice [1] = experiment: Electroretinogram (ERG) in EAE; assay type: in vivo, mouse; conditions: for ERG A-wave and B-wave amplitude: vs vehicle-treated mice
Protocol: (§1) Optical coherence tomography, electroretinograms and visual evoked potentials: OCT was acquired using the spectral domain‐OCT (R2200 840 nm HHP; Leica, Deerfield, IL) at peak EAE disease according to previously published methods[23],[28]. Each image was taken 3 times and averaged. Automatic segmentation of retinal layers was performed using Bioptigen Diver 3.0 software (Leica Microsystems, Deerfield, IL). ERG and VEPs were measured using the HMsERG200 ([…], Henderson, NV) as previously described[23],[28]. Animals were dark adapted for a minimum of 5 h prior to recording. During acquisition, animals were anesthetized with continuous 2% isoflurane. Traces were averaged and filtered for 60 Hz noise and a low-pass filter. MATLAB was used to adjust baselines and smoothed prior to measuring ERG and VEP amplitudes and latencies.
(§2) Electroretinograms and visual evoked potentials were measured using the HMsERG200 (OcuScience, Henderson, NV) as previously described (8, 9). Animals were dark adapted for a minimum of 5 hours prior to recording. During acquisition, animals were anesthetized with continuous 2% isoflurane. Traces were averaged and filtered for 60 Hz noise and a low-pass filter. MATLAB was used to adjust baselines and smoothed prior to measuring ERG and VEP amplitudes and latencies.

[2] = for Kp uu Brain Mean / Kp uu Uterus Mean: 40 mg/kg PO; for K p,uu,brain Cmax: single dose oral PK in mouse at 40 mg/kg
Protocol: Plasma samples were 100% plasma or 5-fold diluted plasma; brain homogenate samples were diluted 5-fold with buffer, while uterus homogenate samples were initially diluted 5-fold and then further diluted to 20-fold. Equilibrium dialysis was performed in a 96-well plate system with wells containing 80 µL of buffer and 80 µL of the sample on opposite sides of the membrane. After incubation at 37°C for 5 hours with shaking at 180 rpm, aliquots were collected from both sides of the membrane for further analysis.
For plasma samples, 50 µL of sample was mixed with 50 µL of phosphate buffer, followed by addition of 300 µL quenching solution containing internal standards and DMSO. For 5-fold diluted plasma samples, 35 µL of sample was mixed with 35 µL of blank buffer, followed by 280 µL quenching solution. For tissue homogenate samples, 50 µL samples were mixed with 50 µL of phosphate buffer, followed by 200 µL quenching solution. All samples were vortexed for 1 minute, and centrifuged at 4,000 rpm for 15 minutes, and the supernatant collected for LC-MS/MS analysis, which was performed using an API 5500 mass spectrometer with an ACQUITY UPLC BEH 1.7 μm C18 100 Å column (2.1 mm * 50 mm) and ACE Excel 5 C4 (2.1 * 50 mm) column. Mobile phases were 0.1% formic acid in water or 5 mM NH4OAc with 0.05% formic acid in water (A) and 0.1% formic acid in acetonitrile (B). Run times were 8 minutes for plasma samples and 5 minutes for other sample types. The mass spectrometer was operated in positive electrospray ionization mode.
Free fraction (fu) and recovery were calculated using specific equations for each sample type. For plasma samples, fu (%) was calculated as (Cbuffer / Cplasma) * 100%, and recovery (%) as ((Cplasma + Cbuffer) / T0) * 100%. For 5-fold diluted plasma samples, fu,20% (%) was calculated as (Cbuffer / Cplasma) * 100%, and fu,100% (%) as fu,20% / (5 - 4 * fu,20%) * 100%. Similar equations were used for uterus and brain samples, accounting for their respective dilution factors. These calculations allowed for the determination of the free fraction of the test compound in various tissue compartments and the assessment of recovery rates.

[3] = test system: co-cultures of primary cortical neurons and OPCs; experiment: Axon myelination in co-cultures of primary cortical neurons and OPCs; assay type: cell-based, mouse; conditions: K102, K110 10 nM; Clemastine, Bazedoxifene 500 nM; 5 days
Text: Mouse and Human primary cell cultures: Primary OPC/OL culture were isolated from the cortices of postnatal day 0–1 C57BL/6J mice of both sexes, using established protocols[11],[20],[21]. Mouse OPC and Neuronal Co-cultures: Primary neuronal cultures were established in Neurobasal medium with B27 and plated on poly-L-lysine-coated coverslips. After 12 days, OPCs were isolated, counted, and added to neuronal cultures and media was replaced with neuronal and proliferation media for 3 days, then switched to maturation media that maintained both neurons and OLs. Human iPSC-derived OPCs (Tempo’s iOligo™) were expanded, cryopreserved, and later plated on Matrigel-coated coverslips. After 3 days in growth medium, cells were treated for 3 weeks with T3 containing maturation medium. Differentiation into myelin-producing OLs was assessed using O4 (OL surface marker on pre-OLs) and myelin basic protein (MBP) immunohistochemistry. […]
Immunocytochemistry and Image Analysis of cell cultures: After treatment, cells were fixed and stained for MBP and DAPI. […] Cell densities were quantified using ImageJ and normalized to control conditions. MBP-positive cells, their process extensions, and highly branched OLs were counted to assess differentiation. Co-culture images were analyzed for MBP and β3-tubulin colocalization using JACoP[22] in ImageJ, with results validated by manual quantification. […]

primary mouse OPCs = experiment: OL differentiation in primary mouse OPC culture (MBP, DAPI); assay type: cell-based; conditions: for MBP+ OLs vs vehicle-treated wells: 10 nM; for number of MBP+ cells vs vehicle: 10 nM and 100 nM, concentration-dependent
Text: Mouse and Human primary cell cultures: Primary OPC/OL culture were isolated from the cortices of postnatal day 0–1 C57BL/6J mice of both sexes, using established protocols[11],[20],[21]. Mouse OPC and Neuronal Co-cultures: Primary neuronal cultures were established in Neurobasal medium with B27 and plated on poly-L-lysine-coated coverslips. After 12 days, OPCs were isolated, counted, and added to neuronal cultures and media was replaced with neuronal and proliferation media for 3 days, then switched to maturation media that maintained both neurons and OLs. Human iPSC-derived OPCs (Tempo’s iOligo™) were expanded, cryopreserved, and later plated on Matrigel-coated coverslips. After 3 days in growth medium, cells were treated for 3 weeks with T3 containing maturation medium. Differentiation into myelin-producing OLs was assessed using O4 (OL surface marker on pre-OLs) and myelin basic protein (MBP) immunohistochemistry. In all conditions compounds or vehicle were added to culture during differentiation for either 5 days (mouse) or 18 days (human).
Immunocytochemistry and Image Analysis of cell cultures: After treatment, cells were fixed and stained for MBP and DAPI. Coverslips were imaged using a confocal microscope at 10× and 40× objectives. Cell densities were quantified using ImageJ and normalized to control conditions. MBP-positive cells, their process extensions, and highly branched OLs were counted to assess differentiation. Co-culture images were analyzed for MBP and β3-tubulin colocalization using JACoP[22] in ImageJ, with results validated by manual quantification.
Primary OL Progenitor cells (OPC) and Neuronal Cultures: OPC and cortical neuronal cultures were prepared from the cortices of postnatal day P0-P1 C57BL/6J mice of both sexes, following established protocols (1, 2);(3). The single-cell suspension was divided into two tubes. One tube was treated with warm Neuronal Basal media, counted, and plated onto poly-L-lysine (PLL)-coated glass coverslips. The second tube was resuspended in glial growth medium, composed of DMEM-F12 supplemented with 10% fetal bovine serum, and placed in a PLL-coated culture flask for 8–10 days until confluent. Primary OPCs were then isolated by shaking and either co-cultured with primary neurons or plated onto poly-D-lysine-coated glass coverslips (three coverslips per condition, 2x10^6 cells per coverslip). The OPCs were allowed to attach for three days, followed by five days in differentiating media (DMEM-F12 with Sato media containing triiodothyronine and thyroxine) supplemented with various analogues and remyelinating compounds. For comparison, a negative control (vehicle, consisting of the media and ethanol mixture used to dissolve the analogues and remyelinating compounds) and a normal control (differentiating media alone) were included in the experiments.
Quantification of Mature OLs and Co-culture axon myelination: At the conclusion of the treatment period, cells were fixed and subjected to immunocytochemistry to evaluate myelin basic protein (MBP) expression, co-stained with the nuclear marker DAPI (shown in blue). […] Cell counting was performed using the ImageJ multipoint tool, and cell densities were calculated by dividing the counts by the image area (mm²). […]
To assess OL differentiation, the number of MBP-positive (MBP+) cells and process extensions exceeding the diameter of the cell body were quantified.

[4] = test system: splenocytes from EAE mice; experiment: Splenocyte cytokine/chemokine analysis ex vivo (MOG35-55 stimulation); assay type: in vivo, mouse; conditions: K102 5 or 30 mg/kg, K110 10 or 30 mg/kg; 40 dpi
Protocol: Splenocyte Isolation and Cytokine Analysis: Spleens were collected from mice prior to transcardial perfusion, and splenocytes were isolated, counted, and resuspended in RPMI medium. After 1 h incubation, cells were stimulated with 25 µg/mL MOG₃₅-₅₅, and supernatants were collected 48 h later. Cytokine and chemokine levels in the supernatants, including pro- and anti-inflammatory markers as well as chemokines were analyzed by The Cytokine Core (Indianapolis, IN).
In MS and EAE, peripherally activated immune cells release inflammatory cytokines and chemokines, triggering demyelination and axonal damage. To examine how different concentrations of K102 (5 mg/kg or 30 mg/kg) (Fig. 4A) and K110 (10 mg/kg or 30 mg/kg) (Fig. 4B) influence the peripheral immune response, splenocytes were isolated from EAE mice at 40 dpi. These splenocytes were then stimulated ex vivo with MOG35-55 and analyzed for cytokine and chemokine expression.
Splenocyte Isolation and Cytokine Analysis: Spleens were removed from mice prior to transcardial perfusion. After isolation, splenocytes were counted and resuspended in RPMI. Following incubation, splenocytes were stimulated with 25 µg/ml MOG35–55 and supernatants were collected 48 hours later. Levels of the following cytokines and chemokines present in culture supernatants were sent to The Cytokine Core (Indianapolis, IN); pro-inflammatory cytokines: IFNγ, Tumor necrosis factor (TNF)α, IL-1α, IL-1β, IL-3, IL-6, IL9, IL17, Vascular endothelial growth factor (VEGF), CCL5/RANTES and macrophage colony-stimulating factor (M-CSF); anti-inflammatory cytokines: IL-5 and IL-10; chemokines: CXCL10, and CXCL1 were determined.

[5] = test system: CPZ demyelinating model of MS; experiment: Cuprizone (CPZ) diet demyelination/remyelination model, corpus callosum IHC; conditions: for CC1 + OLs compared to RM + V / CD45 immunoreactivity compared to 12wkDM / GFAP expression / myelin (MBP, PLP, and MOG staining) compared to RM + V: corpus callosum, 5 mg/kg/day, 3 wk
Text: CPZ administration and treatment: Mice were fed a diet containing 0.2% bis(cyclohexanone)oxaldihydrazone (CPZ, Teklad Custom Diets, Madison, WI) for 12 weeks, as previously described[15],[27]. A subset of mice was perfused immediately following the 12-week CPZ regimen (12wkDM). […] These mice were perfused and their brains were processed for IHC.

[6] = target: T1, full length purified human ERβ (Homo sapiens, UniProt Q92731); experiment: competitive ligand binding assay, tritiated estradiol as tracer; conditions: for RBA β/α ratio: ERβ/ERα relative affinity ratio
T1 construct: full length purified human ERα and ERβ
T1 sequence (Q92731 whole entry): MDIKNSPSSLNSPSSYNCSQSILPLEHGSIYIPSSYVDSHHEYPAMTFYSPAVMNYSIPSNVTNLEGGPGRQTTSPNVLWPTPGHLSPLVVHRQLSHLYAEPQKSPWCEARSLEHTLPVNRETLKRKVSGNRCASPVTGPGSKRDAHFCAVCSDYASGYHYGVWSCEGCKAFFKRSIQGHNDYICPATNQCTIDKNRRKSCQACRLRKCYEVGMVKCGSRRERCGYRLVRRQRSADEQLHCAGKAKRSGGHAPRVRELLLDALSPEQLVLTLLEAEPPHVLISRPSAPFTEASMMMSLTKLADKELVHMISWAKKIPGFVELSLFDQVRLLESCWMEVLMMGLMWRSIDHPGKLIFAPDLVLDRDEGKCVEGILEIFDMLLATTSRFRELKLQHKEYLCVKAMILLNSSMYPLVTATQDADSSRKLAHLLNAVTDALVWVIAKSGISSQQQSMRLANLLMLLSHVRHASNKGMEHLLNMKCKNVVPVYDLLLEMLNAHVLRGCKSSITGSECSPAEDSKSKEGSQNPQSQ

CYP3A4 = CYP3A4 (Homo sapiens, UniProt P08684); experiment: CYP inhibition (midazolam and testosterone substrates); conditions: test compounds at 10 μM; for CYP Inhibition Percentage CYP3A4-M: substrate Midazolam
Sequence of CYP3A4 (P08684 whole entry): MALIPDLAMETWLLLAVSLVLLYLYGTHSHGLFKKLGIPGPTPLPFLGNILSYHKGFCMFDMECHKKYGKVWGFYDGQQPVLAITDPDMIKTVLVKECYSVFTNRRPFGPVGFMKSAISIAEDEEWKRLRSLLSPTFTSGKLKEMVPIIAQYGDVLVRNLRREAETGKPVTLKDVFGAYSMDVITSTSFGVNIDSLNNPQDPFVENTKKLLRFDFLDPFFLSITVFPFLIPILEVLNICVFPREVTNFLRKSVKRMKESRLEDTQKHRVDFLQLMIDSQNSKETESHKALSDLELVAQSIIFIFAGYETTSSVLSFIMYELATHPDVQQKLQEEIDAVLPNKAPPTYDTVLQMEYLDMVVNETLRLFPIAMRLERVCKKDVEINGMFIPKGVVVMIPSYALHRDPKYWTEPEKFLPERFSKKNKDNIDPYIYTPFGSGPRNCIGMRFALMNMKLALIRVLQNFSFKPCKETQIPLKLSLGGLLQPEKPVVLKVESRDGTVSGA

[7] = target: T2, full length purified human ERα (Homo sapiens, UniProt P03372); experiment: competitive ligand binding assay, tritiated estradiol as tracer
T2 construct: full length purified human ERα and ERβ
T2 sequence (P03372 whole entry): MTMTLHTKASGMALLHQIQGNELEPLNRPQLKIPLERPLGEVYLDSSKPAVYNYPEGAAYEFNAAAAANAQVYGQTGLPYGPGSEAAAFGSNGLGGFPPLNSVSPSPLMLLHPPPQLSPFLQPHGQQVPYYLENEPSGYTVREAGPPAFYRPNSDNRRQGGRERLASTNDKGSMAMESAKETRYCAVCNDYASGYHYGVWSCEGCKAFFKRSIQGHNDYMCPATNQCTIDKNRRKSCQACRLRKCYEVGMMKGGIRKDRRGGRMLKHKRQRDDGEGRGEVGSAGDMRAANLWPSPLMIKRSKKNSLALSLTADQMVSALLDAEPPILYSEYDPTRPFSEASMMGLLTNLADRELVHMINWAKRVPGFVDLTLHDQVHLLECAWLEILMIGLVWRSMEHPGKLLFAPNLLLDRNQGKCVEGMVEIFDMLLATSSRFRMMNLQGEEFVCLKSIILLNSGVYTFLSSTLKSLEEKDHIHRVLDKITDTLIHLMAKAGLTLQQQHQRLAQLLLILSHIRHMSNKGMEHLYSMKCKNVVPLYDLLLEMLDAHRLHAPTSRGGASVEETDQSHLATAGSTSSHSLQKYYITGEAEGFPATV

[8] = Stability in human plasma; assay type: in vitro ADME
[9] = Uterine weight and body weight in EAE mice; conditions: for Body weight / Uterine weight / Uterine weight/body weight ratio: EAE mice; for uterine weight relative to body weight: normal or EAE intact female mice
Text: The animals from Hook EAE experiment Figure 3Bii were used. […] (S6ii) The weight of the uteri removed from mice relative to total body weight along with the raw uterine weight and body weight at the end of this experiment is plotted.

EAE mice [10] = experiment: Visual evoked potential (VEP) in EAE; assay type: in vivo, mouse; conditions: vs vehicle-treated
Protocol: as §1, §2

EAE mice [11] = experiment: Rotarod motor performance in EAE; assay type: in vivo, mouse; conditions: 5 mg/kg SC
Protocol: EAE induction and treatment: EAE was induced in 8–10-week-old wild-type C57BL/6J mice using MOG₃₅-₅₅ peptide[11],[14],[23]–[25]. Mice were scored daily using a standard clinical scale (0–5) and tested for their ability to stay on a rotarod. […] At peak disease (18–22 days post-immunization), animals were grouped into EAE+Vehicle, EAE+K102, and EAE+K110.
Rotarod Motor Performance: Mice cages were moved to the behavioral room 1 hour prior to testing. Motor performance was assessed using the Rotarod apparatus (Med Associates, Inc., St. Albans, VT) as previously performed with modifications(5, 6). Briefly, mice were placed on the rotating horizontal rod set to a speed of 3 – 30 rpm for a maximum of 300 seconds. The amount of time the mouse was able to walk on the accelerating rod was recorded. Each mouse was tested in three trials separated by 15 minute intertrial intervals. The average of the three trials was reported as a single value for each mouse. Statistical analysis was performed in GraphPad Prism 10 software using Mann-Whitney test.

[12] = relative binding affinity, estradiol = 100

## Oc1ccc(-n2nc3ccc(O)cc3c2Cl)c(O)c1 [Compound K110, IndCl-o-OH]
EAE mice [1]
  ERG B-wave latency: improved
  ERG A-wave and B-wave amplitude: significant increase
[2]; 0.5 hr
  Kp uu Brain Mean: 0.232
  Kp uu Uterus Mean: 0.516
[2]; 2.0 hr
  Kp uu Brain Mean: 0.802
  Kp uu Uterus Mean: 10.651
[2]; 4.0 hr
  Kp uu Brain Mean: 0.280
  Kp uu Uterus Mean: 45.849
[2]; 8.0 hr
  Kp uu Brain Mean: 0.294
  Kp uu Uterus Mean: 6.280
[2]; 40 mg/kg
  K p,uu,brain Cmax: 0.8
[3]
  OL processes wrapping axons: significant increase
Primary mouse OPCs
  MBP+ OLs vs vehicle-treated wells: significant increase
  number of MBP+ cells vs vehicle: significantly increased
[4]
  CXCL1 production: did not affect
  CXCL10 levels compared to vehicle: reduced
  certain anti-inflammatory cytokines compared to vehicle: significantly lower
  pro-inflammatory cytokine levels compared to vehicle: reduced
[5]; PO
  RM/N (remyelination with cpd. vs. normal): 100%
  RM/RM-V (remyelination with cpd. vs. spontaneous remyelination without cpd): 127%
[5]; SC, 5 mg/kg
  RM/N (remyelination with cpd. vs. normal): 84%
  RM/RM-V (remyelination with cpd. vs. spontaneous remyelination without cpd): 133%
[5]
  CC1 + OLs compared to RM + V: further increase
  CD45 immunoreactivity compared to 12wkDM: small but significant decrease
  GFAP expression: remained unchanged
  myelin (MBP, PLP, and MOG staining) compared to RM + V: significant increase
[6]
  RBA β/α ratio: 48
[6]; [12]
  RBA ERβ: 4.35
CYP3A4
  CYP Inhibition Percentage CYP3A4-M: 13.95%
[7]; [12]
  RBA ERα: 0.09
[8]
  % Remaining at 6 hr in Human Plasma: 105.99%
[9]; group average
  Body weight: 15.27
  Uterine weight: 0.04
  Uterine weight/body weight ratio: 0.26
[9]; individual animals
  Body weight: 14.58 and 15.48 and 15.50 and 14.68 and 16.10
  Uterine weight: 0.044 and 0.027 and 0.034 and 0.056
  Uterine weight/body weight ratio: 0.3018 and 0.1744 and 0.2194 and 0.3815 and 0.2112
[9]
  uterine weight relative to body weight: no increase
EAE mice [10]
  VEP P1 (or N2) amplitude: did not affect
  VEP P1 latency: did reduce
EAE mice [11]
  ability to remain on the rotarod: non-significant improvement

## Cc1cc(O)ccc1-n1nc2ccc(O)cc2c1Cl [Compound K102, IndCl-o-Me]
EAE mice [1]
  ERG B-wave latency: improved
  ERG A-wave and B-wave amplitude: significant increase
[2]; 0.5 hr
  Kp uu Brain Mean: 0.581
  Kp uu Uterus Mean: 0.269
[2]; 2.0 hr
  Kp uu Brain Mean: 0.333
  Kp uu Uterus Mean: 0.380
[2]; 4.0 hr
  Kp uu Brain Mean: 0.629
  Kp uu Uterus Mean: 8.681
[2]; 8.0 hr
  Kp uu Brain Mean: 0.325
  Kp uu Uterus Mean: 3.086
[2]
  K p,uu,brain Cmax: 0.63
[3]
  OL processes wrapping axons: significant increase
Primary mouse OPCs
  MBP+ OLs vs vehicle-treated wells: significant increase
  number of MBP+ cells vs vehicle: significantly increased
[4]
  CXCL1 production: did not affect
  CXCL10 levels compared to vehicle: reduced
  certain anti-inflammatory cytokines compared to vehicle: significantly lower
  pro-inflammatory cytokine levels compared to vehicle: reduced
[5]; PO
  RM/N (remyelination with cpd. vs. normal): 76%
  RM/RM-V (remyelination with cpd. vs. spontaneous remyelination without cpd): 121%
[5]; SC, 5 mg/kg
  RM/N (remyelination with cpd. vs. normal): 94%
  RM/RM-V (remyelination with cpd. vs. spontaneous remyelination without cpd): 149%
[5]
  CC1 + OLs compared to RM + V: further increase
  CD45 immunoreactivity compared to 12wkDM: small but significant decrease
  GFAP expression: remained unchanged
  myelin (MBP, PLP, and MOG staining) compared to RM + V: significant increase
[6]
  RBA ERβ: 24.0
  RBA β/α ratio: 65
CYP3A4
  CYP Inhibition Percentage CYP3A4-M: 50.95%
CYP3A4; substrate Testosterone, 10 µM
  CYP Inhibition Percentage CYP3A4-T: 77% and 76.99%
[7]
  RBA ERα: 0.37
[8]
  % Remaining at 6 hr in Human Plasma: 89.39%
[9]; group average
  Body weight: 20.124
  Uterine weight: 0.055
  Uterine weight/body weight ratio: 0.275
[9]; individual animals
  Body weight: 19.160 and 19.460 and 20.910 and 21.110 and 19.980
  Uterine weight: 0.0650 and 0.0330 and 0.0810 and 0.0490
  Uterine weight/body weight ratio: 0.3392 and 0.1696 and 0.3874 and 0.2321 and 0.2452
[9]
  uterine weight relative to body weight: no increase
EAE mice [10]
  VEP P1 (or N2) amplitude: significant increase
  VEP P1 latency: reduction
EAE mice [11]
  ability to remain on the rotarod: non-significant improvement
